Columns and labels:
[1] = test system: subjects with subjective tinnitus of at least moderate severity; test: Double-blind placebo-controlled pilot trial of neramexane in tinnitus: THF-12 (TBF-12) questionnaire; assay type: in vivo, human; conditions: for TBF-12 functional-communicational score, Actual Mean ± SD / TBF-12 functional-communicational score, Neramexane - Placebo LSMean Diff. ± SE / TBF-12 functional-communicational score, Change Mean ± SD / TBF-12 functional-communicational score, Change LSMean: ITT-LOCF; for TBF-12 functional-communicational score, Change Mean ± SD / TBF-12 functional-communicational score, Change LSMean: baseline to Week 16; for TBF-12 functional-communicational score, Change LSMean: ANCOVA
Method: The objective of this pilot project was to conduct a clinical trial to assess the efficacy of neramexane as a treatment for tinnitus. The primary objective of this study was to compare the efficacy, tolerability and safety of neramexane mesylate at three different dosages (25, 50 or 75 mg/d) with placebo in subjects with subjective tinnitus of at least moderate severity.
(§1) In a double-blind, multicenter, randomized, placebo-controlled, parallel-group study, the efficacy of neramexane in subjects suffering from tinnitus of at least moderate severity was assessed. Approximately 100 patients, who fulfilled particular inclusion criteria and met none of particular exclusion criteria, were randomized to each of four double-blind treatment groups (neramexane mesylate 25, 50, 75 mg/d or placebo), resulting in approximately 400 patients in total.
(§2) The double-blind, 16-week treatment period consisted of a 4-week uptitration period and a 12-week fixed-dose treatment period at maintenance b.i.d. dosing. In case of poor tolerability, however, the investigator could consider a dose reduction by 25 mg/d (or placebo, respectively). After the treatment phase, there was a 4-week follow-up period with no active treatment and concomitant therapy restrictions. In total, this study involved seven study visits: screening, baseline, and at the end of weeks 4, 8, 12, 16, and 20.
Visit 1 (screening): After signing the consent form, the subject underwent a physical examination and clinical laboratory testing. Patient eligibility for the study was evaluated via a check of inclusion/exclusion criteria. An initial Tinnitus Interview was conducted. The subject also completed a Tinnitus-Beeinträchtigungs-Fragebogen (THF-12) (i.e., a 12-item German modified and validated version (Greimel K V et al., Tinnitus-Beeinträchtigungs-Fragebogen (THF-12). Manual. Frankfurt am Main: Swets & Zeitlinger B. V.; 2000) of the 25-item Tinnitus Handicap Inventory or THI (Newman C W, et al. Development of the Tinnitus Handicap Inven-tory. Arch Otolaryngol Head Neck Surg 1996; 122(2): 143-148; Newman C W, et al. Psychometric adequacy of the Tinnitus Handicap Inventory (THI) for evaluating treatment outcome. J Am Acad Audiol 1998; 9(2): 153-160.)), a Hospital Anxiety and Depression Scale—Depression Subscale (HADS-D) Questionnaire and a Hyperacusis (Geräuschüberempfindlichkeit-Fragenbogen (GÜF)) Questionnaire (if applicable).
(§3) Study medication was dispensed at Visit 2 (baseline, day 0). Each patient received one blister box containing 5 blister cards (including one reserve blister) of double-blind study medication (i.e., […]). Subjects were instructed to take 2 tablets twice daily (4 tablets/d), beginning the day after dispensing of the study medication, until they returned for their next study visit (Visit 3). For those subjects assigned to receive active medication, some placebo tablets were incorporated into the dosing regimen to ensure blinding during the uptitration period. The target fixed-maintenance dose of 25, 50, or 75 mg neramexane mesylate/d was administered starting with the fifth week of double-blind treatment and was continued throughout the study. At each of the subsequent visits (Visits 3, 4, and 5, corresponding to end of week 4, 8 and 12) patients received another blister box containing 5 blister cards for the 4 week intervals, with double-blind medication for the intervening treatment period until the next study visit.
Primary Outcome • The change in THF-12 total score from baseline (Visit 2) to the endpoint visit (Visit 6, i.e. Week 16) was the primary efficacy endpoint in this study. […]

[2] = test system: subjects with subjective tinnitus of at least moderate severity; test: Double-blind placebo-controlled pilot trial of neramexane in tinnitus: structured tinnitus interview, question 12/5 (concentration); assay type: in vivo, human; conditions: for Concentration: Affected (%) / Concentration: Affected n / Concentration: No effect (%) / Concentration: No effect n / Concentration: Prevented (%) / Concentration: Prevented n: ITT-LOCF
Method: as §1, §2, §3
Secondary Outcomes • THF-12 total score (values and absolute change from baseline) at all post-baseline visits except the endpoint visit. • Change in the THF-12 total score from Week 16 to Week 20 (values and absolute changes). • THF-12 factorial scores (values and absolute change from baseline, including the change from Week 16 to Week 20) at all post-baseline visits. • Hyperacusis questionnaire GÜF (“Geräuschüberempfindlichkeits-Fragebogen”), values and absolute change from baseline, including the change from Week 16 to Week 20, total and factorial scores at all post-baseline visits if hyperacusis was present. • Clinical global impression of change: item 27 of the tinnitus follow-up interview was summarized after dichotomization of the responses in any improvement (values 1, 2, 3) versus no improvement (values 4, 5, 6, 7) and in marked improvement (values 1, 2) versus no marked improvement (values 3, 4, 5, 6, 7). • Total score of HADS-D as well as the depression and anxiety subscale scores (values and absolute change from baseline, also the change from week 16 to week 20) at all post-baseline visits. • Values of tinnitus interview (initial and follow-up) at all post-baseline visits; absolute change from baseline and change from Week 16 to Week 20 for items 8, 9, 10, 19, 20, 21, 24, 25 and 26 of the follow-up interview.
All efficacy analyses were performed on the ITT population using the last-observation-carried-forward (LOCF) approach. For sensitivity purposes an analysis of the per-protocol set and of observed cases was performed additionally. All statistical tests used for testing the primary efficacy (confirmatory testing) and secondary efficacy criteria (exploratory), and all other statistical tests used for exploratory analyses were two-sided hypothesis tests performed at the 5% significance level. For all variables standard descriptive statistics were calculated.

[3] = target: α9/α10 nicotinic receptor (Rattus norvegicus, UniProt P43144+Q9JLB5); conditions: Plazas, et al., Eur J. Pharmacol., 2007; cited from earlier work
Chain of α9/α10 nicotinic receptor (P43144 26-479): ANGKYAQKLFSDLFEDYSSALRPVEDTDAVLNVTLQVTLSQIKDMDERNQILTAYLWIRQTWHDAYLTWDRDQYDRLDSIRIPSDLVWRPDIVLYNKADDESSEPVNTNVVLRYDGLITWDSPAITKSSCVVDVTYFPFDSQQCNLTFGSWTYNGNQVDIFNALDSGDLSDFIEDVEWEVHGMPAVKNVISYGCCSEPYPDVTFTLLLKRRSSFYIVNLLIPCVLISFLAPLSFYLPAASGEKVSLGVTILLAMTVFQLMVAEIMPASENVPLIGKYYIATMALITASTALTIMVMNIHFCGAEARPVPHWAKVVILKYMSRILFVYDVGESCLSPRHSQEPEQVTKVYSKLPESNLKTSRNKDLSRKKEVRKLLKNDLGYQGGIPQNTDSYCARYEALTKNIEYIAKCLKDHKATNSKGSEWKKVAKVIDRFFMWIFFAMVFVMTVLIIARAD
Chain of α9/α10 nicotinic receptor (Q9JLB5 25-447): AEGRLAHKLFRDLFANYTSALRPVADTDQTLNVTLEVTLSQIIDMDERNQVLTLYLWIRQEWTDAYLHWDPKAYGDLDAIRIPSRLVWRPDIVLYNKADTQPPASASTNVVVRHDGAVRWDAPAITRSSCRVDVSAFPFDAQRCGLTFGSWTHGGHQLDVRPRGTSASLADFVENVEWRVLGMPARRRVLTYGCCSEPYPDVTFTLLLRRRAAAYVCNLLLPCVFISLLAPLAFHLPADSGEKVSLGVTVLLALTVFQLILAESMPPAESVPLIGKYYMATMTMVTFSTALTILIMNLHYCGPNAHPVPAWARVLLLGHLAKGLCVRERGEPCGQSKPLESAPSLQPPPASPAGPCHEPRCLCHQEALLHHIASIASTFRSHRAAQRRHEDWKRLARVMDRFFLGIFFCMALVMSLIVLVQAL

[4] = final daily doses of 50 or 75 mg, 16 weeks, distinct from placebo or low-dose (25 mg)
[5] = Baseline, 25 mg/d group, N = 106
[6] = Baseline, 50 mg/d group, N = 106
[7] = Baseline, 75 mg/d group, N = 99
[8] = Week 16 or end of treatment, 25 mg/d, N = 101
[9] = Week 16 or end of treatment, 50 mg/d, N = 103
[10] = Week 16 or end of treatment, 75 mg/d, N = 93

With `CC1(C)CC(C)(C)CC(C)(N)C1.CS(=O)(=O)O` [neramexane mesylate] the “improvement of tinnitus as measured by the THF-12” value ([1]; final daily doses of 50 or 75 mg, 16-week double-blind treatment, distinct from placebo or low-dose (25 mg)) was “clear improvement of their tinnitus”, the “improvement of cognition, item one (concentration) and item two (focused attention) of the functional-communicational subscore of the THF-12” value [1, 4] was “clear improvement of their cognition” and the “improvement of concentration, question 12/5 of the structured tinnitus interview” value [2, 4] was “clear improvement of their concentration”.

In the case of `CC1(C)CC(C)(C)CC(C)(N)C1` [Neramexane, 1-amino-1,3,3,5,5-pentamethylcyclohexane], the “activity at α9/α10 nicotinic receptor” value [3] is listed as “α9/α10 nicotinic receptor antagonist”, the “TBF-12 functional-communicational score, Actual Mean ± SD” value ([1]; Baseline, 25 mg/d group, n=106) is listed as 5.0 ± 2.1 and the “TBF-12 functional-communicational score, Actual Mean ± SD” value ([1]; Baseline, 50 mg/d group, n=106) is listed as 5.2 ± 1.9. For the same molecule, the “TBF-12 functional-communicational score, Actual Mean ± SD” value ([1]; Baseline, 75 mg/d group, n=99) was 5.1 ± 2.2, the “TBF-12 functional-communicational score, Neramexane - Placebo LSMean Diff. ± SE” value ([1]; Week 16, 25 mg/d vs placebo) was 0.0 ± 0.2 and the “TBF-12 functional-communicational score, Actual Mean ± SD” value ([1]; Week 16, 25 mg/d, n=106) was 4.3 ± 2.5. For the same molecule, the “TBF-12 functional-communicational score, Neramexane - Placebo LSMean Diff. ± SE” value ([1]; Week 16, 50 mg/d vs placebo) was −0.5 ± 0.2, the “TBF-12 functional-communicational score, Actual Mean ± SD” value ([1]; Week 16, 50 mg/d, n=106) was 3.9 ± 2.2 and the “TBF-12 functional-communicational score, Neramexane - Placebo LSMean Diff. ± SE” value ([1]; Week 16, 75 mg/d vs placebo) was −0.4 ± 0.2. For the same molecule, the “TBF-12 functional-communicational score, Actual Mean ± SD” value ([1]; Week 16, 75 mg/d, n=99) was 4.0 ± 2.5, the “TBF-12 functional-communicational score, Change Mean ± SD” value ([1]; 25 mg/d) was −0.7 ± 1.5 and the “TBF-12 functional-communicational score, Change LSMean” value ([1]; 25 mg/d) was −0.7. For the same molecule, the “TBF-12 functional-communicational score, Change Mean ± SD” value ([1]; 50 mg/d) was −1.2 ± 2.0, the “TBF-12 functional-communicational score, Change LSMean” value ([1]; 50 mg/d) was −1.2 and the “TBF-12 functional-communicational score, Change Mean ± SD” value ([1]; 75 mg/d) was −1.1 ± 1.8. For the same molecule, the “TBF-12 functional-communicational score, Change LSMean” value ([1]; 75 mg/d) was −1.0, the “effect on cognitive function in patients with tinnitus (conclusion of Example 1)” value ([1]; patients with tinnitus) was “capability to improve cognitive function” and the “Concentration: Affected (%)” value [2, 5] was “(82.1) %”. The “Concentration: Affected n” value [2, 5] was 87, the “Concentration: No effect (%)” value [2, 5] was “(12.3) %” and the “Concentration: No effect n” value [2, 5] was 13. The “Concentration: Prevented (%)” value [2, 5] was “(5.7) %”, the “Concentration: Prevented n” value [2, 5] was 6 and the “Concentration: Affected (%)” value [2, 6] was “(84.0) %”. The “Concentration: Affected n” value [2, 6] was 89, the “Concentration: No effect (%)” value [2, 6] was “(9.4) %” and the “Concentration: No effect n” value [2, 6] was 10. For the same molecule, the “Concentration: Prevented (%)” value [2, 6] was “(6.6) %”, the “Concentration: Prevented n” value [2, 6] was 7 and the “Concentration: Affected (%)” value [2, 7] was “(73.7) %”. For the same molecule, the “Concentration: Affected n” value [2, 7] was 73, the “Concentration: No effect (%)” value [2, 7] was “(19.2) %” and the “Concentration: No effect n” value [2, 7] was 19. For the same molecule, the “Concentration: Prevented (%)” value [2, 7] was “(7.1) %”, the “Concentration: Prevented n” value [2, 7] was 7 and the “Concentration: Affected (%)” value [2, 8] was “(81.2) %”. For the same molecule, the “Concentration: Affected n” value [2, 8] was 82, the “Concentration: No effect (%)” value [2, 8] was “(17.8) %” and the “Concentration: No effect n” value [2, 8] was 18. The “Concentration: Prevented (%)” value [2, 8] was “(1.0) %”, the “Concentration: Prevented n” value [2, 8] was 1 and the “Concentration: Affected (%)” value [2, 9] was “(73.8) %”. The “Concentration: Affected n” value [2, 9] was 76, the “Concentration: No effect (%)” value [2, 9] was “(24.3) %” and the “Concentration: No effect n” value [2, 9] was 25. The “Concentration: Prevented (%)” value [2, 9] was “(1.9) %”, the “Concentration: Prevented n” value [2, 9] was 2 and the “Concentration: Affected (%)” value [2, 10] was “(73.1) %”. The “Concentration: Affected n” value [2, 10] was 68, the “Concentration: No effect (%)” value [2, 10] was “(23.7) %” and the “Concentration: No effect n” value [2, 10] was 22. For the same molecule, the “Concentration: Prevented (%)” value [2, 10] was “(3.2) %” and the “Concentration: Prevented n” value [2, 10] was 3.
